Measurements: patent US8912121B2, “Herbicidal compositions comprising 4-amino-3-chloro-5-fluoro-6-(4-chloro-2-fluoro-3-methoxyphenyl)pyridine-2-carboxylic acid or a derivative thereof and certain PS II inhibitors” (Dow Agrosciences LLC, priority 2012, dated 2014)
Read-outs that look alike come from different tables or passages of the source.

Experiments:
[1] = tested on: ECHCO (Echinochloa colona, junglerice); assay: Postemergence foliar-applied mixtures, direct seeded rice, greenhouse; type: in vivo, Echinochloa colona (L.) Link; settings: 450 g ai/ha; 21 DAA
From the text: (§1) Seeds or nutlets of the desired test plant species were planted in a soil matrix prepared by mixing a loam or sandy loam soil (e.g., 28.6 percent silt, 18.8 percent clay, and 52.6 percent sand, with a pH of about 5.8 and an organic matter content of about 1.8 percent) and calcareous grit in an 80 to 20 ratio. The soil matrix was contained in plastic pots with a volume of 1 quart and a surface area of 83.6 square centimeters (cm^2). When required to ensure good germination and healthy plants, a fungicide treatment and/or other chemical or physical treatment was applied. The plants were grown for 8-22 days in a greenhouse with an approximate 14 h photoperiod which was maintained at about 29° C. during the day and 26° C. during the night. Nutrients (Peters Excel® 15-5-15 5-Ca 2-Mg and iron chelate) were applied in the irrigation solution as needed and water was added on a regular basis. Supplemental lighting was provided with overhead metal halide 1000-Watt lamps as necessary. The plants were employed for testing when they reached the first through fourth true leaf stage.
(§2) Treatments consisted of the acid or esters of 4-amino-3-chloro-5-fluoro-6-(4-chloro-2-fluoro-3-methoxy-phenyl) pyridine-2-carboxylic acid (Compound A), each formulated as an SC (suspension concentrate), and various herbicidal components alone and in combination. Forms of compound A were applied on an acid equivalent basis.
(§3) Other herbicidal components were applied on an active ingredient basis and included Photosystem II (PSII)-inhibiting herbicides propanil formulated as Stam® M4 EC, bentazon-sodium formulated as Basagran®, atrazine formulated as Atrazine 90 WDG, bromoxynil octanoate ester formulated as Buctril®, simetryne (technical grade material), simazine formulated as Princep® Caliber 90, ioxynil (technical grade material), cyanazine (technical grade material), and hexazinone (technical grade material).
(§4) Treatment requirements were calculated based upon the rates being tested, the concentration of active ingredient or acid equivalent in the formulation, and a 12 mL application volume at a rate of 187 L/ha.
(§5) For treatments comprised of formulated compounds, measured amounts of compounds were placed individually in 25 mL glass vials and diluted in a volume of 1.25% (v/v) Agri-Dex® crop oil concentrated to obtain 12× stock solutions. […] Application solutions were prepared by adding an appropriate amount of each stock solution (e.g., 1 mL) and diluted to the appropriate final concentrations with the addition of 10 mL of an aqueous mixture of 1.25% (v/v) crop oil concentrate so that the final spray solutions contained 1.25+/−0.05% (v/v) crop oil concentrate.
(§6) For treatments comprised of technical compounds, weighed amounts can be placed individually in 25 mL glass vials and dissolved in a volume of 97:3 v/v acetone/DMSO to obtain 12× stock solutions. […] Application solutions can be prepared by adding an appropriate amount of each stock solution (e.g., 1 mL) and diluted to the appropriate final concentrations with the addition of 10 mL of an aqueous mixture of 1.5% (v/v) crop oil concentrate so that the final spray solutions contain 1.25% (v/v) crop oil concentrate. When technical materials are used, the concentrated stock solutions can be added to the spray solutions so that the final acetone and DMSO concentrations of the application solutions are 16.2% and 0.5%, respectively.
(§7) For treatments comprised of formulated and technical compounds, weighed amounts of the technical materials were placed individually in 25 mL glass vials and dissolved in a volume of 97:3 v/v acetone/DMSO to obtain 12× stock solutions, and measured amounts of the formulated compounds were placed individually in 25 mL glass vials and diluted in a volume of 1.5% (v/v) crop oil concentrate or water to obtain 12× stock solutions. […]

[2] = tested on: CYPIR (Cyperus iria, rice flatsedge); assay: as above; type: in vivo, Cyperus iria L.; settings: 22 DAA
From the text: as §1, §2, §3, §4, §5, §6, §7

[3] = tested on: FIMMI (Fimbristylis miliacea, globe fringerush); assay: In-water applied mixtures, transplanted paddy rice, greenhouse; type: in vivo, Fimbristylis miliacea (L.) Vahl; settings: 19 DAA
Experimental: (§8) Weed seeds or nutlets of the desired test plant species were planted in puddled soil (mud) prepared by mixing a shredded, non-sterilized mineral soil (50.5 percent silt, 25.5 percent clay, and 24 percent sand, with a pH of about 7.6 and an organic matter content of about 2.9 percent) and water at a 1:1 volumetric ratio. The prepared mud was dispensed in 365 mL aliquots into 16-ounce (oz.) non-perforated plastic pots with a surface area of 86.59 square centimeters (cm^2) leaving a headspace of 3 centimeters (cm) in each pot Mud was allowed to dry overnight prior to planting or transplanting. Rice seeds were planted in Sun Gro MetroMix® 306 planting mixture, which typically has a pH of 6.0 to 6.8 and an organic matter content of about 30 percent, in plastic plug trays. Seedlings at the second or third leaf stage of growth were transplanted into 840 mL of mud contained in 32-oz. non-perforated plastic pots with a surface area of 86.59 cm^2 4 days prior to herbicide application. The paddy was created by filling the headspace of the pots with 2.5 to 3 cm of water. When required to ensure good germination and healthy plants, a fungicide treatment and/or other chemical or physical treatment was applied. The plants were grown for 4-22 days in a greenhouse with an approximate 14 h photoperiod which was maintained at about 29° C during the day and 26° C. during the night. Nutrients were added as Osmocote® (19:6:12, N:P:K+ minor nutrients) at 2 g per 16-oz. pot and 4 g per 32-oz. pot. Water was added on a regular basis to maintain the paddy flood, and supplemental lighting was provided with overhead metal halide 1000-Watt lamps as necessary. The plants were employed for testing when they reached the first through fourth true leaf stage.
(§9) Treatments consisted of the acid or esters of 4-amino-3-chloro-5-fluoro-6-(4-chloro-2-fluoro-3-methoxy-phenyl)pyridine-2-carboxylic acid (compound A) each formulated as an SC (suspension concentrate) and various herbicidal components alone and in combination. Forms of compound A were applied on an acid equivalent basis.
(§10) Other herbicidal components were applied on an active ingredient basis and included photosystem II (PSII)-inhibits propanil formulated as […] bentazon-sodium formulated as Basagran®, and simetryne (technical grade material).
(§11) Treatment requirements for each compound or herbicidal component were calculated based upon the rates being tested, the concentration of active ingredient or acid equivalent in the formulation, an application volume of 2 mL per component per pot, and an application area of 86.59 cm^2 per pot.
(§12) For formulated compounds, a measured amount was placed in an individual 100 or 200 mL glass vial and was dissolved in a volume of 1.25% (v/v) Agri-Dex® crop oil concentrate to obtain application solutions.
For technical grade compounds, a weighed amount was placed in an individual 100 to 200 mL glass vial and was dissolved in a volume of acetone to obtain concentrated stock solutions. […]
(§13) The treated plants and control plants were placed in a greenhouse as described above and water was added as needed to maintain a paddy flood. After approximately 3 weeks the condition of the test plants as compared with that of the untreated plants was determined visually and scored on a scale of 0 to 100 percent where 0 corresponds to no injury or growth inhibition and 100 corresponds to complete kill. […]

[4] = tested on: LEFCH (Leptochloa chinensis, Chinese sprangletop); assay: Postemergence foliar-applied mixtures, direct seeded rice, greenhouse; type: in vivo, Leptochloa chinensis (L.) Nees; settings: 225 g ai/ha; 22 DAA
From the text: as §1, with “stage. […]” for “stage.”
as §4
(§14) For treatments comprised of formulated compounds, measured amounts of compounds were placed individually in 25 mL glass vials and diluted in a volume of 1.25% (v/v) Agri-Dex® crop oil concentrated to obtain 12× stock solutions. […]
as §7

[5] = tested on: CYPRO (Cyperus rotundus, purple nutsedge); assay: In-water applied mixtures, transplanted paddy rice, greenhouse; type: in vivo, Cyperus rotundus L.; settings: 19 DAA
Experimental: as §8, §9, §10, §11, §12
(§15) For technical grade compounds, a weighed amount was placed in an individual 100 to 200 mL glass vial and was dissolved in a volume of acetone to obtain concentrated stock solutions. […] The concentrated stock solutions obtained were diluted with an equivalent volume of an aqueous mixture containing 2.5% (v/v) crop oil concentrate so that the final application solutions contained 1.25% (v/v) crop oil concentrate.
(§16) Applications were made by injecting with a pipetter appropriate amounts of the application solutions, individually and sequentially, into the aqueous layer of the paddy. Control plants were treated in the same manner with the solvent blank. Applications were made so that all treated plant material received the same concentrations of acetone and crop oil concentrate.
as §13

[6] = tested on: ECHOR (Echinochloa oryzoides, early watergrass); assay: as above; type: in vivo, Echinochloa oryzoides (Ard.) Fritsch
Experimental: as §8, §9, §10, §11, §12, §15, §16, §13

[7] = tested on: LEFCH (Leptochloa chinensis, Chinese sprangletop); assay: as above; type: in vivo, Leptochloa chinensis (L.) Nees
Experimental: as §8, §9, §10, §11, §12, §15, §16, §13

[8] = tested on: SCPMA (Schoenoplectus maritimus, sea clubrush); assay: as above; type: in vivo, Schoenoplectus maritimus (L.) Lye; settings: 1120 g ae/ha; 20 DAA
Experimental: as §8, §9, §10, §11, §12, §15, §16, §13

[9] = tested on: ECHCG (Echinochloa crusgalli, barnyardgrass); assay: as above; type: in vivo, Echinochloa crusgalli (L.) Beauv.; settings: 21 DAA
Experimental: as §8, with “stage. […]” for “stage.”
as §11
For formulated compounds, a measured amount was placed in an individual 100 or 200 mL glass vial and was dissolved in a volume of 1.25% (v/v) Agri-Dex® crop oil concentrate to obtain application solutions. […]
as §13

[10] = tested on: IPOHE (Ipomoea hederacea, ivyleaf morningglory); assay: Postemergence foliar-applied mixtures, direct seeded rice, greenhouse; type: in vivo, Ipomoea hederacea Jacq.; settings: post-emergence, read-out: Visual Weed Control (%) Obs
From the text: as §1, §2, §3, §4, §5, §6, §7

[11] = tested on: COMBE (Commelina benghalensis, Benghal dayflower); assay: as above; type: in vivo, Commelina benghalensis L.; settings: 280 g ai/ha; 20 DAA
From the text: as §1, with “stage. […]” for “stage.”
as §4, §14, §7

## CCNc1nc(NCC)nc(SC)n1 [Simetryne, N,N′-diethyl-6-(methylthio)-1,3,5-triazine-2,4-diamine, reference compound]
[1]
  Visual Weed Control (%) Obs: 45%
[2]; 112.5 g ai/ha
  Visual Weed Control (%) Obs: 0%
[2]; 225 g ai/ha
  Visual Weed Control (%) Obs: 0%
[2]; 450 g ai/ha
  Visual Weed Control (%) Obs: 30%
[3]; 112.5 g ai/ha
  Visual Weed Control (%) Obs: 45%
[3]; 225 g ai/ha
  Visual Weed Control (%) Obs: 90%
[4]
  Visual Weed Control (%) Obs: 40%
[5]; 112.5 g ai/ha
  Visual Weed Control (%) Obs: 0%
[5]; 225 g ai/ha
  Visual Weed Control (%) Obs: 0%
[5]; 450 g ai/ha
  Visual Weed Control (%) Obs: 0%
[6]; 112.5 g ai/ha, 19 DAA
  Visual Weed Control (%) Obs: 0%
[6]; 225 g ai/ha, 19 DAA
  Visual Weed Control (%) Obs: 10%

## CC(C)N1C(=O)c2ccccc2NS1(=O)=O [Bentazon-sodium, 3-(1-methylethyl)-1H-2,1,3-benzothiadiazin-4(3H)-one 2,2-dioxide, reference compound]
[7]; 420 g ae/ha, 21 DAA
  Visual Weed Control (%) Obs: 0%
[7]; 840 g ae/ha, 21 DAA
  Visual Weed Control (%) Obs: 0%
[7]; 1120 g ae/ha, 20 DAA
  Visual Weed Control (%) Obs: 0%
[8]
  Visual Weed Control (%) Obs: 0%
[9]; 420 g ae/ha
  Visual Weed Control (%) Obs: 0%
[9]; 840 g ae/ha
  Visual Weed Control (%) Obs: 0%
[10]; 480 h, 840 g ae/ha, 20 DAA
  pest or weed control at 840 g/ha: 13%
[10]; 504 h, 105 g ai/ha, 21 DAA
  pest or weed control at 105 g/ha: 0%
[10]; 504 h, 210 g ai/ha, 21 DAA
  pest or weed control at 210 g/ha: 0%
[10]; 504 h, 420 g ai/ha, 21 DAA
  pest or weed control at 420 g/ha: 10%
[10]; 504 h, 840 g ai/ha, 21 DAA
  pest or weed control at 840 g/ha: 13%
[6]; 1120 g ae/ha, 20 DAA
  Visual Weed Control (%) Obs: 0%
[11]
  Visual Weed Control (%) Obs: 10%
